Experimental findings from patent publication EP4745138A1, “THIO-GLUTARIMIDO ISOINDOLINONE DERIVATIVE, BIFUNCTIONAL PROTEIN DEGRADER CONTAINING SAME, AND USES THEREOF” (Gluetacs Therapeutics (Shanghai) Co., Ltd., priority 2023, dated 2025) are described below.

One test relates to MV-4-11. As to the kind of experiment: Tumor cell proliferation inhibition (CellTiter-Meiluncell Luminescent Cell Viability Assay). It counts as cell-based. To be noted: Homo sapiens, 96 hours; for inhibition at 0.01 µM: MV4-11, 10 nM, read-out: Inhibition Rate at 10 nM (%); for inhibition at 0.5 µM: MV4-11, 500 nM, read-out: Inhibition Rate at 500 nM (%). How it is done:
The tumor cells used herein were cultured in a cell culture medium listed in table 3 at 37°C in an incubator with 5% CO2. Prior to experimentation, all cell lines used were correctly identified by STR profiling, and tested negative for mycoplasma contamination using a mycoplasma detection kit through routine screenings. Table 3. Tumor cells and cell culture medium used in the present disclosure
The IC50 values of the compounds of the present disclosure (including the compounds in Table 1, Table 2, and Examples) were determined using the CellTiter-Meiluncell Luminescent Cell Viability Assay Kit from Dalian Meilun Biotech Co., Ltd. The detailed procedure is as follows: Tumor cells were seeded in 96-well cell culture plates at the densities specified in Table 4. On the following day, the test compounds of the present disclosure were subjected to serial dilution. […] Subsequently, 0.5 µL of the test compound dilution was transferred into the 96-well plate containing the cells, with each well containing 100 µL of cell culture medium. […] Into the 96-well plate, the diluted test compounds and corresponding detection reagents were added, resulting in final test compound concentrations of 500 nM and 10 nM, respectively. The experimental procedure is described below using the diluted 2 µM test compound as an example.
0.5 µL of the aforementioned diluted compound of the present disclosure (including the compounds in Table 1, Table 2, and Examples) was added to the seeded cells in 100 µL of medium, yielding a final test compound concentration of 10 nM. After the cells were treated with the compounds of the present disclosure for a specified period, the cell viability assay reagent was added to the culture medium according to the kit's instructions to determine cell viability. […] All controls were treated using the same procedure as the compounds of the present disclosure. […] Seeding protocol and treatment time for tumor cells

Test [1] concerns the target T1, human Cereblon WT GST-tagged protein (Homo sapiens, UniProt Q96SW2).
T1 construct: purchased CISBIO 64BDCRBNPEH
The test can be described thus: CRBN-binding affinity, HTRF (CEREBLON BINDING kit). The conditions noted are these: for inhibition at 0.5 µM: read-out: Inhibition Rate at 0.5 µM (%); for inhibition at 2 µM: read-out: Inhibition Rate at 2 µM (%). From the text:
The CEREBLON BINDING kits (specification: 10,000 tests; product number: Catalog # 64BDCRBNPEH; CISBIO company) was used to determine the CRBN binding ability of the compounds to be tested through a HTRF method (homogeneous time-resolved fluorescence). The specific methods are as follows: • 1. […] Specifically, diluent #9 (1X) solution was used as the diluent, and multiple concentration gradients were set. […] Into the 96-well plate, the diluted test compounds and corresponding detection reagents were added, resulting in final test compound concentrations of 2 µM and 0.5 µM, respectively. […] Then, 2.5 µL of human Cereblon WT GST-tagged protein solution was added to each well. Finally, 5 µL of the thoroughly mixed Thalidomide-Re reagent and GST Eu antibody working solution were added to each of the aforementioned wells. […] The blank control wells were sequentially added with 2.5 µL of diluent #9 (1X) solution, 2.5 µL of PROTAC binding buffer, and 5 µL of thoroughly mixed Thalidomide-Re reagent and GST Eu antibody working solution. • 4.
(Time-resolved FRET reads energy transfer from a long-lived donor to a nearby acceptor.)

The mark [2] stands for this setting: Table I-8, SMARCA2/4 inhibitors.

Where two headings read alike, the source gives them in different places.

T1 sequence (Q96SW2 whole entry): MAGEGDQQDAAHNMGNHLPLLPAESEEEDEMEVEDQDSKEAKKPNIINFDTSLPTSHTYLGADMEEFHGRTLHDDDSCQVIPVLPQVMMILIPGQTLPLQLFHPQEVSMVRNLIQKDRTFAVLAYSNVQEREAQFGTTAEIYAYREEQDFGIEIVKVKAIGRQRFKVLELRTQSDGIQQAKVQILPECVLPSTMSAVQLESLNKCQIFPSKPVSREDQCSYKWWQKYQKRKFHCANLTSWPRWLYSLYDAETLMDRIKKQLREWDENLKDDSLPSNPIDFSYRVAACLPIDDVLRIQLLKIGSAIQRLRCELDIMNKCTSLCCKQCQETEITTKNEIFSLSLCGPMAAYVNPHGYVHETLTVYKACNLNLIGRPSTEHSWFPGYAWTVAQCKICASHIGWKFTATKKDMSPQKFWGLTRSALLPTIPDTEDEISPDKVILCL

As a reminder, the inhibition is how much of the control response was suppressed. As for `Cc1ccsc1C(=O)n1nc(Nc2ccc(S(=O)(=O)N3CCN(Cc4cccc5c4CN(C4CCC(=O)NC4=O)C5=S)CC3)cc2)nc1N` (stereo not shown) [GT-08797, 3-(4-((4-((4-((5-amino-1-(3-methylthiophene-2-carbonyl)-1H-1,2,4-triazol-3-yl)amino)phenyl)sulfony 1)piperazin-1-yl)methyl)-1-thioxoisoindolin-2-yl)piperidine-2,6-dione], in the test with MV-4-11 (Table I-13, CDK2 inhibitors), the inhibition at 0.01 µM lay in the range of 5 to 10% and the inhibition at 0.5 µM was in the range of 60 to 70%. In test [1], the inhibition at 0.5 µM is 40 to 53% and the inhibition at 2 µM lay in the range of 53 to 60%.

On to `COc1cc(N2CCC(N(C)Cc3ccc4c(c3)CN(C3CCC(=O)NC3=O)C4=S)CC2)c(C)cc1Nc1ncc(Br)c(Nc2ccc3nccnc3c2P(C)(C)=O)n1` (stereo not shown) [GT-08754, 3-(5-(((1-(4-((5-bromo-4-((5-(dimethylphosphoryl)quinoxalin-6-yl)amino)pyrimidin-2-yl)amino)-5-methoxy-2-methylphenyl)piperidin-4-yl)(methyl)amino)methyl)-1-thioxoisoindolin-2-yl)piperidine-2,6-dione], for which, in the test with MV-4-11 (Table I-3, EGFR inhibitors), the inhibition at 0.01 µM lay in the range of 10 to 20% and the inhibition at 0.5 µM was in the range of 70 to 80%. Also, in test [1], the inhibition at 0.5 µM lay in the range of 80 to 100% and the inhibition at 2 µM fell in the range of 80 to 100%.

With `O=C1CCC(N2Cc3c(CN4CCC(n5cc(NC(=O)c6cnn7ccc(N8CCOCC8)nc67)c(C(F)F)n5)CC4)cccc3C2=S)C(=O)N1` (stereo not shown) [GT-05287, N-(3-(difluoromethyl)-1-(1-((2-(2,6-dioxopiperidin-3-yl)-1-thioxoisoindolin-4-yl)methyl)piperidin-4-yl)-1H-pyrazol-4-yl)-5-morpholinopyrazolo[1,5-a]pyrimidine-3-carboxamide], in the test with MV-4-11 (Table I-6, IRAK4 inhibitors), the inhibition at 0.01 µM fell in the range of 10 to 20% and the inhibition at 0.5 µM was in the range of 70 to 80%. Also, in test [1], the inhibition at 0.5 µM is 53 to 60% and the inhibition at 2 µM is 80 to 100%.

For `Cc1cc(S(=O)(=O)N2CCN(Cc3cccc4c3CN(C3CCC(=O)NC3=O)C4=S)CC2)ccc1Nc1ncc(Br)c(Nc2cccc(F)c2C(N)=O)n1` (stereo not shown) [GT-08793, 2-((5-bromo-2-((4-((4-((2-(2,6-dioxopiperidin-3-yl)-1-thioxoisoindolin-4-yl)methyl)piperazin-1-yl)sulfonyl)-2-methylphenyl)amino)pyrimidin-4-yl)amino)-6-fluorobenzamide], in the test with MV-4-11 (Table I-13, CDK2 inhibitors), the inhibition at 0.01 µM is 30 to 40% and the inhibition at 0.5 µM was 60 to 70%.

Turning to `Cn1ncc(-c2nc(NC3CCN(Cc4ccc5c(c4)C(=S)N(C4CCC(=O)NC4=O)C5)CC3)ncc2Cl)c1CC1CC1` (stereo not shown) [GT-08751, 3-(6-((4-((5-chloro-4-(5-(cyclopropylmethyl)-1-methyl-1H-pyrazol-4-yl)pyrimidin-2-yl)amino)piperidin-1-yl)methyl)-1-thioxoisoindolin-2-yl)piperidine-2,6-dione], in the test with MV-4-11 (Table I-7, CDK9 inhibitors), the inhibition at 0.01 µM is 10 to 20% and the inhibition at 0.5 µM lay within 60 to 70%. In addition, in test [1], the inhibition at 0.5 µM was in the range of 40 to 53% and the inhibition at 2 µM is 80 to 100%.

In the case of `Cc1cc(-c2nc(C(=O)Nc3cc4oc(N5CCN(Cc6ccc7c(c6)CN(C6CCC(=O)NC6=O)C7=S)CC5)nc4nc3N3CC[C@@H](O)C3)co2)ccn1` (stereo partly drawn) [GT-05322, N-(2-(4-((2-(2,6-dioxopiperidin-3-yl)-1-thioxoisoindolin-5-yl)methyl)piperazin-1-yl)-5-((R)-3-hydroxypyrrolidin-1-yl)oxazolo[4,5-b]pyridin-6-yl)-2-(2-methylpyridin-4-yl)oxazole-4-carboxamide], in the test with MV-4-11 (Table I-6, IRAK4 inhibitors), the inhibition at 0.01 µM lay in the range of 10 to 20% and the inhibition at 0.5 µM was in the range of 80 to 100%. For the same compound, in test [1], the inhibition at 0.5 µM fell in the range of 60 to 80% and the inhibition at 2 µM fell in the range of 80 to 100%.

Consider `Nc1nnc(-c2ccccc2O)cc1N1CCN(Cc2cccc3c2CN(C2CCC(=O)NC2=O)C3=S)CC1` (stereo not shown) [GT-08786, 3-(4-((4-(3-amino-6-(2-hydroxyphenyl)pyridazin-4-yl)piperazin-1-yl)methyl)-1-thioxoisoindolin-2-yl)piperidine-2,6-dione], for which, in the test with MV-4-11 (setting [2]), the inhibition at 0.01 µM lay in the range of 10 to 15% and the inhibition at 0.5 µM is 40 to 50%. Further, in test [1], the inhibition at 0.5 µM was 53 to 60% and the inhibition at 2 µM fell in the range of 80 to 100%.

For `COc1cc(N2CCC(N3CCN(Cc4ccc5c(c4)CN(C4CCC(=O)NC4=O)C5=S)CC3)CC2)c(C)cc1Nc1ncc(Br)c(Nc2ccc3nccnc3c2P(C)(C)=O)n1` (stereo not shown) [GT-08755, 3-(5-((4-(1-(4-((5-bromo-4-((5-(dimethylphosphoryl)quinoxalin-6-yl)amino)pyrimidin-2-yl)amino)-5-methoxy-2-methylphenyl)piperidin-4-yl)piperazin-1-yl)methyl)-1-thioxoisoindolin-2-yl)piperidine-2,6-dione], in the test with MV-4-11 (Table I-3, EGFR inhibitors), the inhibition at 0.01 µM lay in the range of 20 to 30% and the inhibition at 0.5 µM was in the range of 70 to 80%. Besides, in test [1], the inhibition at 0.5 µM lay within 80 to 100% and the inhibition at 2 µM was in the range of 80 to 100%.

`Cn1c2ccncc2c2ccc(-c3ccc(N4CCN(Cc5ccc6c(c5)CN(C5CCC(=O)NC5=O)C6=S)CC4)nc3)cc21` (stereo not shown) [GT-08982, 3-(5-((4-(5-(5-methyl-5H-pyrido[4,3-b]indol-7-yl)pyridin-2-yl)piperazin-1-yl)methyl)-1-thioxoisoindolin-2-yl)piperidine-2,6-dione]: in test [1], the inhibition at 0.5 µM was in the range of 60 to 80% and the inhibition at 2 µM was in the range of 80 to 100%.

`O=C1CCC(N2Cc3c(CN4CCN(c5ncc(C(=O)Nc6ccc(OC(F)(F)Cl)cc6)cc5-c5cc[nH]n5)CC4)cccc3C2=S)C(=O)N1` (stereo not shown) [GT-08775, N-(4-(chlorodifluoromethoxy)phenyl)-6-(4-((2-(2,6-dioxopiperidin-3-yl)-1-thioxoisoindolin-4-yl)methyl)piperazin-1-yl)-5-(1H-pyrazol-3-yl)nicotinamide]: in test [1], the inhibition at 0.5 µM was 30 to 40% and the inhibition at 2 µM is 60 to 80%.

Take `CN(C)C(=O)c1cc2cnc(Nc3ccc(N4CCN(Cc5ccc6c(c5)C(=S)N(C5CCC(=O)NC5=O)C6)CC4)cn3)nc2n1C1CCCC1` (stereo not shown) [GT-09427, 7-cyclopentyl-2-((5-(4-((2-(2,6-dioxopiperidin-3-yl)-3-thioxoisoindolin-5-yl)methyl)piperazin-1-yl)pyridin-2-yl)amino)-N,N-dimethyl-7H-pyrrolo[2,3-d]pyrimidine-6-carboxamide]: in test [1], the inhibition at 0.5 µM lay within 60 to 80% and the inhibition at 2 µM fell in the range of 80 to 100%.

For `O=C1CCC(N2Cc3cc(CN4CCN(c5ccc(-c6cc(F)c7c(c6)C(=O)N(C(C(=O)Nc6nccs6)c6ncn8c6CCC8)C7)cc5)CC4)ccc3C2=S)C(=O)N1` (stereo not shown) [GT-09423, 2-(6,7-dihydro-5H-pyrrolo[1,2-c]imidazol-1-yl)-2-(6-(4-(4-((2-(2,6-dioxopiperidin-3-yl)-1-thioxoisoindolin-5-yl)methyl)piperazin-1-yl)phenyl)-4-fluoro-1-oxoisoindolin-2-yl)-N-(thiazol-2-yl)acetamide], in test [1], the inhibition at 0.5 µM is 53 to 60% and the inhibition at 2 µM lay within 60 to 80%.

For `COc1cc(N2CCC(N3CCN(C)CC3)CC2)ccc1Nc1ncc(Cl)c(Nc2ccccc2P(C)(C)=O)n1` [Brigatinib, reference compound], in test [1], the inhibition at 0.5 µM was in the range of 0 to 10% and the inhibition at 2 µM is 10 to 20%.
